From patent US4898859A, “2-Oxa-isocephem compounds and compositions containing same” (Otsuka Pharmaceutical Co., Ltd., priority 1987, dated 1990)
Values after ≈ are worked out from the molar mass of the structure shown. Counter-ions that a name gives are not always drawn.

Tests used:
Assay type in all cases: cell-based
S. aureus FDA-209-p = test: antimicrobial activity in vitro, MIC by agar plate dilution method, S. aureus FDA-209-p; details: Staphylococcus aureus, FDA209, inoculum 1×10^6 cells/ml, read-out: minimal inhibitory concentration (MIC)
Experimental: (§1) In order to investigate the in vitro activity of the under-mentioned compounds against various bacteria, the minimal inhibitory concentration (MIC) values were determined by the agar plate dilution method [see Chemotherapy, 22, 1126-1128 (1974)].
(§2) Each test inoculum was adjusted to 1×10^6 cells/ml (O.D., 600 mμ: 0.07-0.16).

E. coli NIHJ = test: antimicrobial activity in vitro, MIC by agar plate dilution method, E. coli NIHJ; details: Escherichia coli, inoculum 1×10^6 cells/ml, read-out: minimal inhibitory concentration (MIC)
Experimental: as §1, §2

E. coli No. 29 = test: antimicrobial activity in vitro, MIC by agar plate dilution method, E. coli No. 29; details: Escherichia coli, inoculum 1×10^6 cells/ml, read-out: minimal inhibitory concentration (MIC)
Experimental: as §1, §2

K. pneumoniae NCTC-9632 = test: antimicrobial activity in vitro, MIC by agar plate dilution method, K. pneumoniae NCTC-9632; details: Klebsiella pneumoniae, NCTC9632, inoculum 1×10^6 cells/ml, read-out: minimal inhibitory concentration (MIC)
Experimental: as §1, §2

P. mirabilis 1287 = test: antimicrobial activity in vitro, MIC by agar plate dilution method, P. mirabilis 1287; details: Proteus mirabilis, inoculum 1×10^6 cells/ml, read-out: minimal inhibitory concentration (MIC)
Experimental: as §1, §2

M. morganii ATCC-25830 = test: antimicrobial activity in vitro, MIC by agar plate dilution method, M. morganii ATCC-25830; details: Morganella morganii, ATCC25830, inoculum 1×10^6 cells/ml, read-out: minimal inhibitory concentration (MIC)
Experimental: as §1, §2

S. marcescens IFO-12648 = test: antimicrobial activity in vitro, MIC by agar plate dilution method, S. marcescens IFO-12648; details: Serratia marcescens, IFO12648, inoculum 1×10^6 cells/ml, read-out: minimal inhibitory concentration (MIC)
Experimental: as §1, §2

P. aeruginosa NCTC-10490 = test: antimicrobial activity in vitro, MIC by agar plate dilution method, P. aeruginosa NCTC-10490; details: Pseudomonas aeruginosa, NCTC10490, inoculum 1×10^6 cells/ml, read-out: minimal inhibitory concentration (MIC)
Experimental: as §1, §2

SMILES	MIC (S. aureus FDA-209-p) [µg/mL]	MIC (E. coli NIHJ) [µg/mL]	MIC (E. coli No. 29) [µg/mL]	MIC (K. pneumoniae NCTC-9632) [µg/mL]	MIC (P. mirabilis 1287) [µg/mL]	MIC (M. morganii ATCC-25830) [µg/mL]	MIC (S. marcescens IFO-12648) [µg/mL]	MIC (P. aeruginosa NCTC-10490) [µg/mL]
CO/N=C(\C(=O)N[C@@H]1C(=O)N2C(C(=O)[O-])=C(CSc3cc[n+](CC(=O)N4CCCC4)cc3)OC[C@H]12)c1csc(N)n1 [No. 2, (6S,7S)-7-[2-(2-Aminothiazol-4-yl)-2-methoxyiminoacetamido]-3-[[1-(1-pyrrolidinylcarbonylmethyl)-4pyridinio]thiomethyl]-Δ^3 -O-2-isocephem-4-carboxylate (syn-isomer)]	0.2 (≈ 0.332 µM)	≤ 0.025	≤ 0.025	≤ 0.025	≤ 0.025	≤ 0.025	0.1 (≈ 0.166 µM)	1.56 (≈ 2.59 µM)
C[n+]1ccc(SCC2=C(C(=O)[O-])N3C(=O)[C@@H](NC(=O)/C(=N\OCC(N)=O)c4csc(N)n4)[C@H]3CO2)cc1 [No. 5, (6S,7S)-7-[2-(2-Aminothiazol-4-yl)-2-carbamoylmethoxyiminoacetamido]-3-[(1-methyl-4-pyridinio)thiomethyl]-Δ^3 -O-2-isocephem-4-carboxylate (syn-isomer)]	0.2 (≈ 0.365 µM)	≤ 0.025	≤ 0.025	≤ 0.025	≤ 0.025	≤ 0.025	0.1 (≈ 0.183 µM)	12.5 (≈ 22.8 µM)
CO/N=C(\C(=O)N[C@@H]1C(=O)N2C(C(=O)[O-])=C(CSc3cc[n+](CC(=O)N(C)C)cc3)OC[C@H]12)c1csc(N)n1 [No. 6, (6S,7S)-7-[2-(2-Aminothiazol-4-yl)-2-methoxyiminoacetamido]-3-[(1-N,N-dimethylcarbamoylmethyl-4-pyridinio)thiomethyl]-Δ^3 -O-2-isocephem-4-carboxylic acid sulfate (syn-isomer)]	0.2	≤ 0.025	≤ 0.025	≤ 0.025	≤ 0.025	≤ 0.025	0.2	3.13
Nc1nc(/C(=N/OC2CCCC2)C(=O)N[C@@H]2C(=O)N3C(C(=O)[O-])=C(CSc4cc[n+](CC(=O)N5CCNCC5)cc4)OC[C@H]23)cs1 [No. 8, (6S,7S)-7-[2-(2-Aminothiazol-4-yl)-2-cyclopentyloxyiminoacetamido]-3-[[1-(1-piperazinylcarbonylmethyl)-4-pyridinio]thiomethyl]-Δ^3 -O-2-isocephem-4-carboxylate (syn-isomer)]	0.2 (≈ 0.298 µM)	0.2 (≈ 0.298 µM)	0.1 (≈ 0.149 µM)	0.2 (≈ 0.298 µM)	0.39 (≈ 0.581 µM)	0.1 (≈ 0.149 µM)	0.78 (≈ 1.16 µM)	0.78 (≈ 1.16 µM)
Nc1nc(/C(=N/OC2CCCC2)C(=O)N[C@@H]2C(=O)N3C(C(=O)[O-])=C(CSc4cc[n+](CC(=O)NO)cc4)OC[C@H]23)cs1 [No. 9, (6S,7S)-7-[2-(2-Aminothiazol-4-yl)-2-cyclopentyloxyiminoacetamido]-3-[(1-hydroxyaminocarbonylmethyl-4-pyridinio)thiomethyl]-Δ^3 -O-2-isocephem-4-carboxylate (syn-isomer)]	0.39 (≈ 0.631 µM)	0.2 (≈ 0.324 µM)	0.1 (≈ 0.162 µM)	0.39 (≈ 0.631 µM)	0.2 (≈ 0.324 µM)	0.05 (≈ 0.0809 µM)	1.56 (≈ 2.53 µM)	3.13 (≈ 5.07 µM)
CO/N=C(\C(=O)N[C@@H]1C(=O)N2C(C(=O)[O-])=C(CSc3cc[n+](CC(=O)N4CCOCC4)cc3)OC[C@H]12)c1csc(N)n1 [No. 10, (6S,7S)-7-[2-(2-Aminothiazol-4-yl)-2-methoxyiminoacetamido]-3-[(1-morpholinocarbonylmethyl-4pyridinio)thiomethyl]-Δ^3 -O-2-isocephem-4-carboxylate (syn-isomer)]	0.2 (≈ 0.324 µM)	≤ 0.025	≤ 0.025	≤ 0.025	≤ 0.025	≤ 0.025	0.1 (≈ 0.162 µM)	6.25 (≈ 10.1 µM)
Nc1nc(/C(=N/OC2CCCC2)C(=O)N[C@@H]2C(=O)N3C(C(=O)[O-])=C(CSc4cc[n+](CCl)cc4)OC[C@H]23)cs1 [No. 11, (6S,7S)-7-[2-(2-Aminothiazol-4-yl)-2-cyclopentyloxyiminoacetamido]-3-[(1-chloromethyl-4-pyridinio)thiomethyl]-Δ^3 -O-2-isocephem-4-carboxylate (syn-isomer)]	0.1 (≈ 0.169 µM)	0.2 (≈ 0.337 µM)	0.1 (≈ 0.169 µM)	0.39 (≈ 0.658 µM)	0.2 (≈ 0.337 µM)	0.05 (≈ 0.0843 µM)	0.78 (≈ 1.32 µM)	1.56 (≈ 2.63 µM)
Nc1nc(/C(=N/OC2CCCC2)C(=O)N[C@@H]2C(=O)N3C(C(=O)[O-])=C(CSc4cc[n+](CCF)cc4)OC[C@H]23)cs1 [No. 13, (6S,7S)-7-[2-(2-Aminothiazol-4-yl)-2-cyclopentyloxyiminoacetamido]-3-[[1-(2-fluoroethyl)-4-pyridinio]thiomethyl]-Δ^3 -O-2-isocephem-4-carboxylate (syn-isomer)]	0.1 (≈ 0.169 µM)	0.2 (≈ 0.339 µM)	0.1 (≈ 0.169 µM)	0.39 (≈ 0.66 µM)	0.2 (≈ 0.339 µM)	0.05 (≈ 0.0847 µM)	1.56 (≈ 2.64 µM)	0.78 (≈ 1.32 µM)
CO/N=C(\C(=O)N[C@@H]1C(=O)N2C(C(=O)[O-])=C(CSc3cc[n+](CCF)cc3)OC[C@H]12)c1csc(N)n1 [No. 14, (6S,7S)-7-[2-(2-Aminothiazol-4-yl)-2-methoxyiminoacetamido]-3-[[1-(2-fluoroethyl)-4-pyridinio]thiomethyl]-Δ^3 -O-2-isocephem-4-carboxylate (syn-isomer)]	0.2 (≈ 0.373 µM)	≤ 0.025	≤ 0.025	≤ 0.025	≤ 0.025	≤ 0.025	0.1 (≈ 0.186 µM)	1.56 (≈ 2.91 µM)

Other lines, results leading:

MIC (S. aureus FDA-209-p) [µg/mL]	MIC (E. coli NIHJ) [µg/mL]	MIC (E. coli No. 29) [µg/mL]	MIC (K. pneumoniae NCTC-9632) [µg/mL]	MIC (P. mirabilis 1287) [µg/mL]	MIC (M. morganii ATCC-25830) [µg/mL]	MIC (S. marcescens IFO-12648) [µg/mL]	MIC (P. aeruginosa NCTC-10490) [µg/mL]	SMILES
0.05 (≈ 0.0821 µM)	0.05 (≈ 0.0821 µM)	≤ 0.025	0.05 (≈ 0.0821 µM)	0.05 (≈ 0.0821 µM)	0.05 (≈ 0.0821 µM)	0.1 (≈ 0.164 µM)	1.56 (≈ 2.56 µM)	CO/N=C(\C(=O)N[C@@H]1C(=O)N2C(C(=O)[O-])=C(CSc3cc[n+](CC(=O)c4ccccc4)cc3)OC[C@H]12)c1csc(N)n1 [No. 1, (6S,7S)-7-[2-(2-Aminothiazol-4-yl)-2-methoxyiminoacetamido]-3-[(1-benzoylmethyl-4-pyridinio)thiomethyl]-Δ^3 -O-2-isocephem-4-carboxylate (syn-isomer)]
0.1	0.2	0.1	0.39	0.2	0.05	0.78	0.78	Nc1nc(/C(=N/OC2CCCC2)C(=O)N[C@@H]2C(=O)N3C(C(=O)[O-])=C(CSc4cc[n+](CC(=O)N5CCCC5)cc4)OC[C@H]23)cs1 [No. 3, (6S,7S)-7-[2-(2-Aminothiazol-4-yl)-2-cyclopentyloxyiminoacetamido]-3-[[1-(1-pyrrolidinylcarbonylmethyl)-4-pyridinio]thiomethyl]-Δ^3 -O-2-isocephem-4-carboxylic acid sulfate (syn-isomer)]
0.1	0.2	0.1	0.39	0.2	0.05	1.56	1.56	CN(C)C(=O)C[n+]1ccc(SCC2=C(C(=O)[O-])N3C(=O)[C@@H](NC(=O)/C(=N\OC4CCCC4)c4csc(N)n4)[C@H]3CO2)cc1 [No. 4, (6S,7S)-7-[2-(2-Aminothiazol-4-yl)-2-cyclopentyloxyiminoacetamido]-3-[(1-N,N-dimethylcarbamoylmethyl4-pyridinio)thiomethyl]-Δ^3 -O-2-isocephem-4-carboxylic acid sulfate (syn-isomer)]
0.1	0.2	0.1	0.39	0.1	0.05	0.78	0.78	CCC(=O)C[n+]1ccc(SCC2=C(C(=O)[O-])N3C(=O)[C@@H](NC(=O)/C(=N\OC4CCCC4)c4csc(N)n4)[C@H]3CO2)cc1 [No. 7, (6S,7S)-7-[2-(2-Aminothiazol-4-yl)-2-cyclopentyloxyiminoacetamido]-3-[(1-propanoylmethyl-4-pyridinio)thiomethyl] -Δ^3 -O-2-isocephem-4-carboxylic acid sulfate (syn-isomer)]
0.05 (≈ 0.0835 µM)	0.1 (≈ 0.167 µM)	0.05 (≈ 0.0835 µM)	0.2 (≈ 0.334 µM)	0.1 (≈ 0.167 µM)	0.05 (≈ 0.0835 µM)	0.78 (≈ 1.3 µM)	0.39 (≈ 0.651 µM)	Nc1nc(/C(=N/OC2CCCC2)C(=O)N[C@@H]2C(=O)N3C(C(=O)[O-])=C(CSc4cc[n+](CC5CC5)cc4)OC[C@H]23)cs1 [No. 12, (6S,7S)-7-[2-(2-Aminothiazol-4-yl)-2-cyclopentyloxyiminoacetamido]-3-[(1-cyclopropylmethyl-4-pyridinio)thiomethyl]-Δ^3 -O-2- -isocephem-4-carboxylic acid ditrifluoroacetate (syn-isomer)]
